Measured values taken from patent US20070135490A1, “Phenetanolamine derivatives” (priority 2003, published 2007).

target: T1, human beta-2 receptor (Homo sapiens, UniProt P07550); assay: Chinese hamster ovary cells co-expressing the human receptor with a reporter gene, cAMP measurement in whole cells or membranes (Method 2); assay type: cell-based; details: CHO cells or membranes, read-out: pEC50 at the human beta-2 receptor (converted)
T1 construct: expressed in transfected cells; host or cells: Chinese hamster ovary cells (whole cells or membranes derived from them)
T1 sequence (P07550 whole entry): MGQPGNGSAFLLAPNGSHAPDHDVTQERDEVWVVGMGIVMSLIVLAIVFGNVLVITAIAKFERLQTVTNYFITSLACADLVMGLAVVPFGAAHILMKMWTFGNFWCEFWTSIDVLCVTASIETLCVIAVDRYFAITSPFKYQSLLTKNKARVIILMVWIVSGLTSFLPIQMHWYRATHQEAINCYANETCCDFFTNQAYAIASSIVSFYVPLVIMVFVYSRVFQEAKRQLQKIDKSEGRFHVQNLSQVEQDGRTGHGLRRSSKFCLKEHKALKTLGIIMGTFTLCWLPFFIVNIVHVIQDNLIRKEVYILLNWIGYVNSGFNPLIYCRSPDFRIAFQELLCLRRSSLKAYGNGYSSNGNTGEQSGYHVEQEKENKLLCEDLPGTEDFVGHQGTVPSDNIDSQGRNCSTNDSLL
Method: Potency of compounds of the invention at the human beta 2, 1 and 3 receptors was also determined using Chinese hamster ovary cells co-expressing the human receptor with a reporter gene. Studies were performed using either whole cells or membranes derived from those cells.
The three beta-receptors are coupled via the Gs G-protein to cause a simulation of adenylate cyclase resulting in increased levels of cAMP in the cell. For direct cAMP measurements either membranes or cells have been used with either the HitHunter enzyme fragment complementation kit (DiscoveRx) or the FP^2 fluorescence polarisation kit (Perkin Elmer) to quantify the levels of cAMP present. These assays provide a measure of agonist potency and intrinsic activity of the compounds at the various receptors. […]
In this assay the potency of compounds at the human beta-2 receptor is expressed as a pEC50 value. Compounds of examples 12-26, 28-50 and 52-64 had pEC50 values greather than 6. […] No result is available for the compound of example 51.

EC50, < 1000 nM:
OCc1cc([C@@H](O)CNCCc2cccc(COCc3cccc(F)c3)c2)ccc1O [Example 49, Formic acid compound with 4-((1R)-2-{[2-(3-{[(3-fluorobenzyl)oxy]methyl}phenyl)ethyl]amino}-1-hydroxyethyl)-2-(hydroxymethyl)phenol (1:1)]
OCc1cc([C@@H](O)CNCCc2cccc(COCCCc3c(Cl)cccc3Cl)c2)ccc1O [Example 63, Formic acid compound with 4-((1R)-2-{[2-(3-{[3-(2,6-dichlorophenyl)propoxy]methyl}phenyl)ethyl]amino}-1-hydroxyethyl)-2-(hydroxymethyl)phenol (1:1)]
O=S(=O)(c1cccc(CCCCOCc2cccc(CCNC[C@H](O)c3ccc(O)c(CO)c3)c2)c1)C1CCCC1 [Example 61, Formic acid compound with 4-[(1R)-2-({2-[3-({4-[3-(cyclopentylsulfonyl)phenyl]butoxy}methyl)phenyl]ethyl}amino)-1-hydroxyethyl]-2-(hydroxymethyl)phenol (1:1)]
C[C@H](OCc1cccc(CCNC[C@H](O)c2ccc(O)c(CO)c2)c1)c1ccccc1 [Example 45, Formic acid compound with 2-(hydroxymethyl)-4-[(1R)-1-hydroxy-2-({2-[3-({[(1S)-1-phenylethyl]oxy}methyl)phenyl]ethyl}amino)ethyl]phenol (1:1)]
N#Cc1cccc(COCc2cccc(CCNC[C@H](O)c3ccc(O)c(CO)c3)c2)c1 [Example 42, Formic acid compound with 3-[({3-[2-({(2R)-2-hydroxy-2-[4-hydroxy-3-(hydroxymethyl)phenyl]ethyl}amino)ethyl]benzyl}oxy)methyl]benzonitrile (1:1)]
O=S(=O)(c1ccc(CCCCOCc2cccc(CCNC[C@H](O)c3ccc(O)c(CO)c3)c2)cc1)C1CCCC1 [Example 29, Formic acid compound with 4-[(1R)-2-({2-[3-({4-[4-(cyclopentylsulfonyl)phenyl]butoxy}methyl)phenyl]ethyl}amino)-1-hydroxyethyl]-2-(hydroxymethyl)phenol (1:1)]
O=S(=O)(c1ccc(CCCOCc2cccc(CCNC[C@H](O)c3ccc(O)c(CO)c3)c2)cc1)C1CCCC1 [Example 30, Formic acid compound with 4-[(1R)-2-({2-[3-({3-[4-(cyclopentylsulfonyl)phenyl]propoxy}methyl)phenyl]ethyl}amino)-1-hydroxyethyl]-2-(hydroxymethyl)phenol (1:1)]
OCc1cc([C@@H](O)CNCCc2cccc(COCCc3ccccc3O)c2)ccc1O [Example 25, Formic acid compound with 4-((1R)-1-hydroxy-2-{[2-(3-{[2-(2-hydroxyphenyl)ethoxy]methyl}phenyl)ethyl]amino}ethyl)-2-(hydroxymethyl)phenol (1:1)]
N#Cc1ccc(COCc2cccc(CCNC[C@H](O)c3ccc(O)c(CO)c3)c2)cc1 [Example 43, Formic acid compound with 4-[({3-[2-({(2R)-2-hydroxy-2-[4-hydroxy-3-(hydroxymethyl)phenyl]ethyl}amino)ethyl]benzyl}oxy)methyl]benzonitrile (1:1)]
[O-][S+](c1cccc(CCCCOCc2cccc(CCNC[C@H](O)c3ccc(O)c(CO)c3)c2)c1)C1CCCC1 (stereo partly drawn) [Example 36, Formic acid compound with 4-[(1R)-2-({2-[3-({4-[3-(cyclopentylsulfinyl)phenyl]butoxy}methyl)phenyl]ethyl}amino)-1-hydroxyethyl]-2-(hydroxymethyl)phenol (1:1)]
OCc1cc([C@@H](O)CNCCc2cccc(COCCCCc3c(Cl)cccc3Cl)c2)ccc1O [Example 57, Formic acid compound with 4-((1R)-2-{[2-(3-{[4-(2,6-dichlorophenyl)butoxy]methyl}phenyl)ethyl]amino}-1-hydroxyethyl)-2-(hydroxymethyl)phenol (1:1)]
NS(=O)(=O)c1cccc(CCCCOCc2cccc(CCNC[C@H](O)c3ccc(O)c(CO)c3)c2)c1 [Example 12, Formic acid compound with 3-[4-({3-[2-({(2R)-2-Hydroxy-2-[4-hydroxy-3-(hydroxymethyl)phenyl]ethyl}amino)ethyl]benzyl}oxy)butyl]benzenesulfonamide (1:1)]
O=S(=O)(c1cccc(COCc2cccc(CCNC[C@H](O)c3ccc(O)c(CO)c3)c2)c1)C1CCCC1 [Example 35, Formic acid compound with 4-[(1R)-2-({2-[3-({[3-(cyclopentylsulfonyl)benzyl]oxy}methyl)phenyl]ethyl}amino)-1-hydroxyethyl]-2-(hydroxymethyl)phenol (1:1)]
OCc1cc([C@@H](O)CNCCc2cccc(COCCOCc3cccc(OC(F)(F)F)c3)c2)ccc1O [Example 18, Formic acid compound with 2-(hydroxymethyl)-4-{(1R)-1-hydroxy-2-[(2-{3-[(2-{[3-(trifluoromethoxy)benzyl]oxy}ethoxy)methyl]phenyl}ethyl)amino]ethyl}phenol (1:1)]
N#Cc1ccc(CCCCOCc2cccc(CCNC[C@H](O)c3ccc(O)c(CO)c3)c2)cc1 [Example 21, Formic acid compound with 4-[4-({3-[2-({(2R)-2-hydroxy-2-[4-hydroxy-3-(hydroxymethyl)phenyl]ethyl}amino)ethyl]benzyl}oxy)butyl]benzonitrile (1:1)]
Cc1cc(C)cc(COCc2cccc(CCNC[C@H](O)c3ccc(O)c(CO)c3)c2)c1 [Example 46, Formic acid compound with 4-((1R)-2-{[2-(3-{[(3,5-dimethylbenzyl)oxy]methyl}phenyl)ethyl]amino}-1-hydroxyethyl)-2-(hydroxymethyl)phenol (1:1)]
N#Cc1cccc(COCCOCc2cccc(CCNC[C@H](O)c3ccc(O)c(CO)c3)c2)c1 [Example 13, Formic acid compound with 3-{[2-({3-[2-({(2R)-2-hydroxy-2-[4-hydroxy-3-(hydroxymethyl)phenyl]ethyl}amino)ethyl]benzyl}oxy)ethoxy]methyl}benzonitrile (1:1)]
NC(=O)c1cccc(COCc2cccc(CCNC[C@H](O)c3ccc(O)c(CO)c3)c2)c1 [Example 53, Formic acid compound with 3-[({3-[2-({(2R)-2-hydroxy-2-[4-hydroxy-3-(hydroxymethyl)phenyl]ethyl}amino)ethyl]benzyl}oxy)methyl]benzamide (1:1)]
OCc1cc([C@@H](O)CNCCc2cccc(COCCCCc3cccc(O)c3)c2)ccc1O [Example 19, Formic acid compound with 4-((1R)-1-hydroxy-2-{[2-(3-{[4-(3-hydroxyphenyl)butoxy]methyl}phenyl)ethyl]amino}ethyl)-2-(hydroxymethyl)phenol (1:1)]
NS(=O)(=O)c1cccc(CCOCc2cccc(CCNC[C@H](O)c3ccc(O)c(CO)c3)c2)c1 [Example 55, Formic acid compound with 3-[2-({3-[2-({(2R)-2-hydroxy-2-[4-hydroxy-3-(hydroxymethyl)phenyl]ethyl}amino)ethyl]benzyl}oxy)ethyl]benzenesulfonamide (1:1)]
NC(=O)Nc1cccc(CCCCOCc2cccc(CCNC[C@H](O)c3ccc(O)c(CO)c3)c2)c1 [Example 58, Formic acid compound with N-{3-[4-({3-[2-({(2R)-2-hydroxy-2-[4-hydroxy-3-(hydroxymethyl)phenyl]ethyl}amino)ethyl]benzyl}oxy)butyl]phenyl}urea (1:1)]
N#Cc1ccc(CCCOCc2cccc(CCNC[C@H](O)c3ccc(O)c(CO)c3)c2)cc1 [Example 20, Formic acid compound with 4-[3-({3-[2-({(2R)-2-hydroxy-2-[4-hydroxy-3-(hydroxymethyl)phenyl]ethyl}amino)ethyl]benzyl}oxy)propyl]benzonitrile (1:1)]
OCc1cc([C@@H](O)CNCCc2cccc(COCc3c(Cl)cccc3Cl)c2)ccc1O [Example 47, Formic acid compound with 4-((1R)-2-{[2-(3-{[(2,6-dichlorobenzyl)oxy]methyl}phenyl)ethyl]amino}-1-hydroxyethyl)-2-(hydroxymethyl)phenol (1:1)]
Cc1cc(C)cc(COCCOCc2cccc(CCNC[C@H](O)c3ccc(O)c(CO)c3)c2)c1 [Example 16, Formic acid compound with 4-[(1R)-2-({2-[3-({2-[(3,5-dimethylbenzyl)oxy]ethoxy}methyl)phenyl]ethyl}amino)-1-hydroxyethyl]-2-(hydroxymethyl)phenol (1:1)]
OCc1cc([C@@H](O)CNCCc2cccc(COCc3ccccc3F)c2)ccc1O [Example 48, Formic acid compound with 4-((1R)-2-{[2-(3-{[(2-fluorobenzyl)oxy]methyl}phenyl)ethyl]amino}-1-hydroxyethyl)-2-(hydroxymethyl)phenol (1:1)]
